One block for each molecule: values may come before it.
How the values were obtained:
Settings in all cases: 150 mM NaCl, 5 mM MgCl2; 10 mM HEPES, pH 7.4, 25 °C; immobilised aptamer
[1] = test system: minimal MG-4 malachite green aptamer (RNA, aptamer) GGGAUCCCGACUGGCGAGAGCCAGGUAACGAAUGGAUCCCCCCAAAAAAAAAAAAAAAAAAAAAAAA; assay: SPR kinetics, kd/ka, 1:1 fit
[2] = test system: minimal MG-4 malachite green aptamer (RNA, aptamer) GGGAUCCCGACUGGCGAGAGCCAGGUAACGAAUGGAUCCCCCCAAAAAAAAAAAAAAAAAAAAAAAA; assay: SPR, steady-state affinity fit
[3] = test system: 35FMN-2 flavin mononucleotide aptamer (RNA, aptamer) GGGCGUGUAGGAUAUCGUGUUCGAGAAGGACACGCCCCCCAAAAAAAAAAAAAAAAAAAAAAAA; assay: SPR kinetics, kd/ka, 1:1 fit
[4] = test system: 35FMN-2 flavin mononucleotide aptamer (RNA, aptamer) GGGCGUGUAGGAUAUCGUGUUCGAGAAGGACACGCCCCCCAAAAAAAAAAAAAAAAAAAAAAAA; assay: SPR, steady-state affinity fit
[5] = test system: minimal thiM TPP riboswitch (RNA, riboswitch) GGGACUCGGGGUGCCCUUCUGCGUGAAGGCUGAGAAAUACCCGUAUCACCUGAUCUGGAUAAUGCCAGCGUAGGGAAGUCCCCCAAAAAAAAAAAAAAAAAAAAAAAA; assay: SPR kinetics, kd/ka, 1:1 fit
[6] = test system: TCT8-4 theophylline aptamer (RNA, aptamer) GGGAAGUGAUACCAGCAUCGUCUUGAUGCCCUUGGCAGCACUUCCCCCAAAAAAAAAAAAAAAAAAAAAAAA; assay: SPR kinetics, kd/ka, 1:1 fit
[7] = test system: TCT8-4 theophylline aptamer (RNA, aptamer) GGGAAGUGAUACCAGCAUCGUCUUGAUGCCCUUGGCAGCACUUCCCCCAAAAAAAAAAAAAAAAAAAAAAAA; assay: SPR, steady-state affinity fit
[8] = test system: 44.Arg11 arginine aptamer (RNA, aptamer) GGGACGAGAAGGAGCGCUGGUUAUACUAGCAGGUAGGUCACUCGUCCCCCAAAAAAAAAAAAAAAAAAAAAAAA; assay: SPR, steady-state affinity fit
[9] = test system: 44.Cit11 citrulline aptamer (RNA, aptamer) GGGACGAGAAGGAGUGCUGGUUAUACUAGCGGUUAGGUCACUCGUCCCCCAAAAAAAAAAAAAAAAAAAAAAAA; assay: SPR, steady-state affinity fit
[10] = test system: minimal Tyr 1 tyrosine aptamer (RNA, aptamer) GGGGGCAGUCAACUCGUAAGAUGGCCUUACAGCGGUCAAUACGGGGGUCAUCAGAUAGGGAGGCCCCCCAAAAAAAAAAAAAAAAAAAAAAAA; assay: SPR, steady-state affinity fit
[11] = test system: c-di-GMP class II riboswitch (RNA, riboswitch) GGGUAUUUAUAGAAACUGUGAAGUAUAUCUUAAACCUGGGCACUUAAAAGAUAUAUGGAGUUAGUAGUGCAACCUGCUAUAAAUACCCCAAAAAAAAAAAAAAAAAAAAAAAA; assay: SPR kinetics, kd/ka, 1:1 fit
[12] = test system: c-di-GMP class II riboswitch (RNA, riboswitch) GGGUAUUUAUAGAAACUGUGAAGUAUAUCUUAAACCUGGGCACUUAAAAGAUAUAUGGAGUUAGUAGUGCAACCUGCUAUAAAUACCCCAAAAAAAAAAAAAAAAAAAAAAAA; assay: SPR, steady-state affinity fit
[13] = test system: DH25.42 ATP aptamer (DNA, aptamer) CCTGGGGGAGTATTGCGGAGGAAGGAAAAAAAAAAAAAAAAAAAAAAAA; assay: SPR, steady-state affinity fit

Compound: CN(C)c1ccc(C(=C2C=CC(=[N+](C)C)C=C2)c2ccccc2)cc1
KD,kinetic [1]: 950 ± 340 nM | KD,equilibrium [2]: 2000 ± 100 nM

Compound: N=C(N)NCCC[C@H](N)C(=O)O
KD,equilibrium [8]: 140000 ± 40000 nM

Compound: NC(=O)NCCC[C@H](N)C(=O)O
KD,equilibrium [9]: 31000 ± 1000 nM

Compound: N[C@@H](Cc1ccc(O)cc1)C(=O)O
KD,equilibrium [10]: 17000 ± 6000 nM

Other lines, results leading:

KD,kinetic [3]: 1100 ± 400 nM | KD,equilibrium [4]: 710 ± 20 nM
Compound: Cc1cc2nc3c(=O)[nH]c(=O)nc-3n(C[C@H](O)[C@H](O)[C@H](O)COP(=O)(O)O)c2cc1C

KD,kinetic [5]: 0.89 ± 0.8 nM
Compound: Cc1ncc(C[n+]2csc(CCOP(=O)(O)OP(=O)(O)O)c2C)c(N)n1

KD,kinetic [6]: 430 ± 40 nM | KD,equilibrium [7]: 340 ± 20 nM
Compound: Cn1c(=O)c2[nH]cnc2n(C)c1=O

KD,kinetic [11]: 60 ± 31 nM | KD,equilibrium [12]: 120 ± 20 nM
Compound: Nc1nc2c(ncn2[C@@H]2O[C@@H]3COP(=O)(O)O[C@H]4[C@@H](O)[C@H](n5cnc6c(=O)[nH]c(N)nc65)O[C@@H]4COP(=O)(O)O[C@H]3[C@H]2O)c(=O)[nH]1

KD,equilibrium [13]: 8800 ± 3000 nM
Compound: Nc1ncnc2c1ncn2[C@@H]1O[C@H](COP(=O)(O)OP(=O)(O)OP(=O)(O)O)[C@@H](O)[C@H]1O

From paper PMC3983011 (2014)
